Key:
rice flat sedge = assay: Test Example 3: herbicidal effect by foliage application, Wagner pot (Table 18, symbol E); assay type: in vivo, rice flat sedge (Cyperus iria)
Method in brief: (§1)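 Plants were sown in alluvial soil held under 0.1–0.5 cm standing water and grown 14 days in a greenhouse at 25–30 °C. An emulsifiable formulation, water-diluted to the set dose, was then sprayed onto the foliage, and effects were scored three weeks later using previously defined criteria.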

windgrass [1] = assay: Test Example 4: herbicidal effect by soil treatment (Table 19, symbol L); assay type: in vivo, windgrass (Apera spica-venti)
Method in brief: (§2)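 Soil-surface application: an emulsion agent diluted with water to the predetermined dose is sprayed uniformly over seeds lying under roughly 1.5 cm of sterilized diluvial soil. Boxes stay in a greenhouse at 25° C. to 30° C. Three weeks later, each species is graded on previously defined criteria.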

windgrass [2] = assay: Test Example 5: herbicidal effect by foliage application, plastic box (Table 20, symbol L); assay type: in vivo, windgrass (Apera spica-venti); settings: foliage application, 3 weeks after application
Method in brief: (§3)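 Sow seeds spot-wise in sterilized diluvial soil; cover with ~1.5 cm soil. Grow 14 days in greenhouse, 25° C. to 30° C. Spray foliage with emulsion diluted to predetermined amount. Rate effect after 3 weeks.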

wild oat [3] = assay: Test Example 5: herbicidal effect by foliage application, plastic box (Table 20, symbol I); assay type: in vivo, wild oat (Avena fatua); settings: foliage application, 3 weeks after application
Method in brief: as §3

blackgrass = assay: Test Example 5: herbicidal effect by foliage application, plastic box (Table 20, symbol J); assay type: in vivo, blackgrass (Alopecurus myosuroides); settings: foliage application, 3 weeks after application
Method in brief: as §3

lambsquarters = assay: Test Example 4: herbicidal effect by soil treatment (Table 19, symbol O); assay type: in vivo, lambsquarters (Chenopodium album)
Method in brief: as §2

barnyard grass [4] = assay: Test Example 3: herbicidal effect by foliage application, Wagner pot (Table 18, symbol H); assay type: in vivo, barnyard grass (Echinochloa crus-galli)
Method in brief: as §1

velvetleaf [5] = assay: Test Example 4: herbicidal effect by soil treatment (Table 19, symbol M); assay type: in vivo, velvetleaf (Abutilon theophrasti)
Method in brief: as §2

barnyard grass [6] = assay: Test Example 4: herbicidal effect by soil treatment (Table 19, symbol H); assay type: in vivo, barnyard grass (Echinochloa crus-galli)
Method in brief: as §2

green foxtail = assay: Test Example 5: herbicidal effect by foliage application, plastic box (Table 20, symbol G); assay type: in vivo, green foxtail (Setaria viridis); settings: foliage application, 3 weeks after application
Method in brief: as §3

oval-leafed pondweed = assay: Test Example 1: herbicidal activity, application before weed generation under submerged conditions (Table 16, symbol C); assay type: in vivo, oval-leafed pondweed (Monochoria vaginalis)
Method in brief: (§4)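 Emulsion formulation, water-diluted to set dose, was put onto the flooded surface (4 cm depth, alluvial soil) the same day weeds were sown and 2.5-leaf rice transplanted. After 3 weeks at 25-30 °C under glass, each species was rated 0 (≤5% kill) to 5 (≥90% kill).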

late watergrass = assay: Test Example 2: herbicidal activity, application during weed generation under submerged conditions (Table 17, symbol A); assay type: in vivo, late watergrass (Echinochloa oryzicola); settings: application during weed generation, submerged conditions
Method in brief: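 3-wk visual-criteria score after one water-surface dose. Emulsion formulation, water-diluted to set rate; applied at 1–2 leaf stage; alluvial soil, 4 cm standing water; seeds co-sown; greenhouse 25–30° C.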

Chinese sprangletop = assay: Test Example 3: herbicidal effect by foliage application, Wagner pot (Table 18, symbol D); assay type: in vivo, chinese sprangletop (Leptochloa chinensis)
Method in brief: as §1

velvetleaf [7] = assay: Test Example 5: herbicidal effect by foliage application, plastic box (Table 20, symbol M); assay type: in vivo, velvetleaf (Abutilon theophrasti); settings: foliage application, 3 weeks after application
Method in brief: as §3

wild oat [8] = assay: Test Example 4: herbicidal effect by soil treatment (Table 19, symbol I); assay type: in vivo, wild oat (Avena fatua)
Method in brief: as §2

Japanese bulrush = assay: Test Example 1: herbicidal activity, application before weed generation under submerged conditions (Table 16, symbol B); assay type: in vivo, Japanese bulrush (Schoenoplectus juncoides)
Method in brief: as §4

Row | Structure (SMILES) | herbicidal effect on E (rice flat sedge), rating 0-5 (rice flat sedge; 320 g/ha) | effect on windgrass (L) (windgrass [2]; 320 g/ha) | effect on wild oat (I) (wild oat [3]; 320 g/ha) | effect on blackgrass (J) (blackgrass; 320 g/ha) | herbicidal effect on H (barnyard grass), rating 0-5 (barnyard grass [4]; 320 g/ha) | effect on green foxtail (G) (green foxtail; 320 g/ha) | Herbicidal effect on C: oval-leafed pondweed (grade 0-5) (oval-leafed pondweed; 320 g/ha applied herbicide) | herbicidal effect rating, A: late watergrass (late watergrass; AAH 320 g/ha) | herbicidal effect on D (Chinese sprangletop), rating 0-5 (Chinese sprangletop; 320 g/ha) | effect on velvetleaf (M) (velvetleaf [7]; 320 g/ha) | Herbicidal effect on B: Japanese bulrush (grade 0-5) (Japanese bulrush; 320 g/ha applied herbicide) | herbicidal effect rating, L: windgrass (windgrass [1]; 320 g/ha) | herbicidal effect rating, O: lambsquarters (lambsquarters; 320 g/ha) | herbicidal effect rating, M: velvetleaf (velvetleaf [5]; 320 g/ha) | herbicidal effect rating, H: barnyard grass (barnyard grass [6]; 320 g/ha) | herbicidal effect rating, I: wild oat (wild oat [8]; 320 g/ha) | further results
1 | CSCCSCc1ccc(-c2sc3ccccc3c2-c2c(O)c(C)nn(C)c2=O)cc1 [1-253] | 3 (Herbicidal rate of 40% or more and less than 70%) | 0 (Herbicidal rate of 5% or less (almost no effect)) | 0 (Herbicidal rate of 5% or less (almost no effect)) | 0 (Herbicidal rate of 5% or less (almost no effect)) | 5 (Herbicidal rate of 90% or more (almost completely withered)) | 3 (Herbicidal rate of 40% or more and less than 70%) | 0 (Herbicidal rate of 5% or less (almost no effect)) | 3 (Herbicidal rate of 40% or more and less than 70%) | 3 (Herbicidal rate of 40% or more and less than 70%) | 5 (Herbicidal rate of 90% or more (almost completely withered)) | 3 (Herbicidal rate of 40% or more and less than 70%) |  |  |  |  |  | L: windgrass, herbicidal effect rating (windgrass [1]; AAH 320 g/ha): 0 (Herbicidal rate of 5% or less (almost no effect)); O: lambsquarters, herbicidal effect rating (lambsquarters; AAH 320 g/ha): 3 (Herbicidal rate of 40% or more and less than 70%); M: velvetleaf, herbicidal effect rating (velvetleaf [5]; AAH 320 g/ha): 0 (Herbicidal rate of 5% or less (almost no effect)); H: barnyard grass, herbicidal effect rating (barnyard grass [6]; AAH 320 g/ha): 0 (Herbicidal rate of 5% or less (almost no effect)); I: wild oat, herbicidal effect rating (wild oat [8]; AAH 320 g/ha): 0 (Herbicidal rate of 5% or less (almost no effect))
2 | Cc1ccc(-c2sc3ccc(F)cc3c2-c2c(O)c(C)nn(C)c2=O)cc1 [2-012] | 5 (Herbicidal rate of 90% or more (almost completely withered)) | 4 (Herbicidal rate of 70% or more and less than 90%) | 0 (Herbicidal rate of 5% or less (almost no effect)) | 4 (Herbicidal rate of 70% or more and less than 90%) | 5 (Herbicidal rate of 90% or more (almost completely withered)) | 5 (Herbicidal rate of 90% or more (almost completely withered)) | 0 (Herbicidal rate of 5% or less (almost no effect)) | 3 (Herbicidal rate of 40% or more and less than 70%) | 5 (Herbicidal rate of 90% or more (almost completely withered)) | 5 (Herbicidal rate of 90% or more (almost completely withered)) | 0 (Herbicidal rate of 5% or less (almost no effect)) | 0 (Herbicidal rate of 5% or less (almost no effect)) | 5 (Herbicidal rate of 90% or more (almost completely withered)) | 4 (Herbicidal rate of 70% or more and less than 90%) | 5 (Herbicidal rate of 90% or more (almost completely withered)) | 0 (Herbicidal rate of 5% or less (almost no effect)) | 
3 | CCCC(=O)Oc1c(C)nn(C)c(=O)c1-c1c(-c2ccc(C)cc2)sc2ccc(F)cc12 [2-013] | 5 (Herbicidal rate of 90% or more (almost completely withered)) | 3 (Herbicidal rate of 40% or more and less than 70%) | 0 (Herbicidal rate of 5% or less (almost no effect)) | 1 (Herbicidal rate of 5% or more and less than 20%) | 5 (Herbicidal rate of 90% or more (almost completely withered)) | 5 (Herbicidal rate of 90% or more (almost completely withered)) | 2 (Herbicidal rate of 20% or more and less than 40%) | 4 (Herbicidal rate of 70% or more and less than 90%) | 5 (Herbicidal rate of 90% or more (almost completely withered)) | 5 (Herbicidal rate of 90% or more (almost completely withered)) | 2 (Herbicidal rate of 20% or more and less than 40%) | 0 (Herbicidal rate of 5% or less (almost no effect)) | 5 (Herbicidal rate of 90% or more (almost completely withered)) | 3 (Herbicidal rate of 40% or more and less than 70%) | 4 (Herbicidal rate of 70% or more and less than 90%) | 0 (Herbicidal rate of 5% or less (almost no effect)) | 
4 | COc1ccc(-c2sc3ccc(F)cc3c2-c2c(O)c(C)nn(C)c2=O)cc1 [2-026] | 5 (Herbicidal rate of 90% or more (almost completely withered)) | 4 (Herbicidal rate of 70% or more and less than 90%) | 5 (Herbicidal rate of 90% or more (almost completely withered)) | 4 (Herbicidal rate of 70% or more and less than 90%) | 5 (Herbicidal rate of 90% or more (almost completely withered)) | 4 (Herbicidal rate of 70% or more and less than 90%) | 4 (Herbicidal rate of 70% or more and less than 90%) | 1 (Herbicidal rate of 5% or more and less than 20%) | 4 (Herbicidal rate of 70% or more and less than 90%) | 5 (Herbicidal rate of 90% or more (almost completely withered)) | 4 (Herbicidal rate of 70% or more and less than 90%) | 1 (Herbicidal rate of 5% or more and less than 20%) | 5 (Herbicidal rate of 90% or more (almost completely withered)) | 5 (Herbicidal rate of 90% or more (almost completely withered)) | 4 (Herbicidal rate of 70% or more and less than 90%) | 3 (Herbicidal rate of 40% or more and less than 70%) | 
5 | CCCC(=O)Oc1c(C)nn(C)c(=O)c1-c1c(-c2ccccc2OCC)sc2ccc(F)cc12 [2-029] |  |  |  |  |  |  |  |  |  |  |  |  |  |  |  |  | herbicidal effect on E (rice flat sedge), rating 0-5 (rice flat sedge; 266 g/ha): 3 (Herbicidal rate of 40% or more and less than 70%); herbicidal effect rating, L: windgrass (windgrass [1]; 266 g/ha): 0 (Herbicidal rate of 5% or less (almost no effect)); effect on windgrass (L) (windgrass [2]; 266 g/ha): 1 (Herbicidal rate of 5% or more and less than 20%); effect on wild oat (I) (wild oat [3]; 266 g/ha): 3 (Herbicidal rate of 40% or more and less than 70%); effect on blackgrass (J) (blackgrass; 266 g/ha): 1 (Herbicidal rate of 5% or more and less than 20%); herbicidal effect rating, O: lambsquarters (lambsquarters; 266 g/ha): 4 (Herbicidal rate of 70% or more and less than 90%); herbicidal effect on H (barnyard grass), rating 0-5 (barnyard grass [4]; 266 g/ha): 5 (Herbicidal rate of 90% or more (almost completely withered)); herbicidal effect rating, M: velvetleaf (velvetleaf [5]; 266 g/ha): 0 (Herbicidal rate of 5% or less (almost no effect)); herbicidal effect rating, H: barnyard grass (barnyard grass [6]; 266 g/ha): 3 (Herbicidal rate of 40% or more and less than 70%); effect on green foxtail (G) (green foxtail; 266 g/ha): 4 (Herbicidal rate of 70% or more and less than 90%); Herbicidal effect on C: oval-leafed pondweed (grade 0-5) (oval-leafed pondweed; 266 g/ha applied herbicide): 0 (Herbicidal rate of 5% or less (almost no effect)); herbicidal effect rating, A: late watergrass (late watergrass; AAH 266 g/ha): 3 (Herbicidal rate of 40% or more and less than 70%); herbicidal effect on D (Chinese sprangletop), rating 0-5 (Chinese sprangletop; 266 g/ha): 3 (Herbicidal rate of 40% or more and less than 70%); effect on velvetleaf (M) (velvetleaf [7]; 266 g/ha): 5 (Herbicidal rate of 90% or more (almost completely withered)); herbicidal effect rating, I: wild oat (wild oat [8]; 266 g/ha): 3 (Herbicidal rate of 40% or more and less than 70%); Herbicidal effect on B: Japanese bulrush (grade 0-5) (Japanese bulrush; 266 g/ha applied herbicide): 0 (Herbicidal rate of 5% or less (almost no effect))

— US20230085307A1, “PYRIDAZINONE COMPOUND AND HERBICIDE” (NISSAN CHEMICAL CORPORATION, priority 2019, published 2023)
